As usually defined, the IC50 is the point on the concentration scale where inhibition reaches its midpoint.

This note sets out measurements from ChEMBL document CHEMBL5214948, “Boronic Acid: A Novel Pharmacophore Targeting Src Homology 2 (SH2) Domain of STAT3” (J Med Chem, 2022).

One experiment relates to MGC-803. Put plainly: Antiproliferative activity against human MGC-803 cells assessed as reduction in cell viability measured after 72 hrs by CCK-8 assay. The note with it: MGC-803, 72 h. It is filed as functional, cell-based. In general terms: Formazan colour is commonly taken as a measure of viable cells.
A further experiment concerns AGS. Briefly: Antiproliferative activity against human AGS cells assessed as reduction in cell viability incubated for 72 hrs by CCK-8 assay. It is filed as functional, cell-based.

For `O=C([C@H]1CCCN1S(=O)(=O)c1c(F)c(F)c(F)c(F)c1F)N(Cc1ccc(C2CCCCC2)cc1)c1ccc(B(O)O)cc1`, the IC50 in the experiment with MGC-803 amounted to 6.07 µM; with AGS it was 2.78 µM.
